Measured values: the NIST ThermoML archive (doi:10.1016/j.fluid.2010.08.027)
Numbers after ± are expanded uncertainties.

Details: 101.33 kPa, Liquid, Vibrating tube method

Row | Structure (SMILES) | mass density (303.15 K) | mass density (308.15 K) | mass density (313.15 K) | mass density (318.15 K) | mass density (323.15 K) | mass density (328.15 K) | mass density (333.15 K) | mass density (338.15 K) | mass density (343.15 K) | mass density (348.15 K) | mass density (353.15 K)
1 | Cn1cc[n+](CCO)c1.F[P-](F)(F)(F)(F)F [3-(2-hydroxyethyl)-1-methylimidazolium hexafluorophosphate] | 1555.6 ± 2.2 kg/m3 | 1550.8 ± 2.2 kg/m3 | 1546 ± 2.2 kg/m3 | 1541.1 ± 2.2 kg/m3 | 1536.4 ± 2.2 kg/m3 | 1531.8 ± 2.2 kg/m3 | 1527.2 ± 2.2 kg/m3 | 1522.6 ± 2.2 kg/m3 | 1518.2 ± 2.2 kg/m3 | 1513.6 ± 2.2 kg/m3 | 1508.7 ± 2.1 kg/m3
2 | Cn1cc[n+](CCO)c1.O=S(=O)([N-]S(=O)(=O)C(F)(F)F)C(F)(F)F | 1589.4 ± 2.3 kg/m3 | 1584.2 ± 2.3 kg/m3 | 1578.9 ± 2.3 kg/m3 | 1574.2 ± 2.3 kg/m3 | 1568.7 ± 2.3 kg/m3 | 1563.7 ± 2.3 kg/m3 | 1558.7 ± 2.3 kg/m3 | 1553.7 ± 2.2 kg/m3 | 1548.8 ± 2.2 kg/m3 | 1544 ± 2.2 kg/m3 | 1538.6 ± 2.2 kg/m3
3 | Cn1cc[n+](CCO)c1.O=S(=O)([O-])C(F)(F)F | 1444 ± 2 kg/m3 |  | 1436.1 ± 2 kg/m3 |  | 1428 ± 2 kg/m3 |  | 1420.5 ± 1.9 kg/m3 |  | 1410.8 ± 1.9 kg/m3 |  | 1400.5 ± 1.9 kg/m3
